Molecular target: T1, Chk2 (Homo sapiens, UniProt O96017)
T1 construct: made in house; host or cells: E. coli BL21 Star (Invitrogen)
Test: Chk2 inhibitor IMAP assay (high-throughput Chk2 screening assay)
Format: biochemical
Settings: IMAP fluorescence polarization assay, 10 μM ATP
Procedure: Compounds set forth in Table 1 were tested in the Chk2 inhibitor IMAP assay described herein in Example 6.84. […] The letters given for the Chk2 EC50 values in Table 1 represent the following ranges: A=<100 nM; B=100-300 nM; C=300-1000 nM; D=1-10 μM; and E>10 μM.
Compounds can be screened for Chk2 inhibitory activity using a high-throughput screening assay based in the immobilized metal ion affinity-based fluorescence polarization (IMAP) assay developed by Molecular Devices. This assay is based on the high affinity binding of phosphate by immobilized metal (MIII) coordination complexes on nanoparticles. A fluorescein-labeled peptide substrate is used as the substrate for the kinase activity of Chk2 in the assay. The IMAP binding reagent stops the kinase reaction. The binding of the binding reagent results in a change in the rate of molecular motion of the peptide and causes an increase in the fluorescence polarization value observed for the fluorescein label attached to the end of the peptide. Thus, inhibition of Chk2 would result in a decrease in fluorescence polarization compared to control.
A specific protocol for screening Compounds for Chk2 inhibitory activity follows.
A Compound is supplied at 1 mM in 0.5 μl DMSO on 384 well plates (such as Greiner or Corning). After thawing, 5 μl DMSO is added to the drug plate. The drug plate is then incubated for 10 minutes to solubilize the Compound. An additional 19.5 μl of reaction buffer (10× stock prepared using 100 mM Tris-HCl, 100 mM MgCl2, 1% BSA, pH 7.2, stored at 4° C.)+1 mM DDT is added to bring the Compound to 4× final concentration. A positive control is also prepared at 4× final concentration. The following control wells are used: less enzyme control (all reagents except enzyme; 5 μl/well), less Compound control (all reagents except Compound; 5 μl/well), positive control (all reagents plus staurosporine at a final concentration of 5 μM; 5 μl/well).
Reagents are then added in the following order to give the following final concentration: 2.5 μl ATP/Chk2tide (Molecular Devices) (10 μM/100 nM final concentration), 1.25 μl Compound (5 μM final concentration inf 5.5% DMSO), and 1.25 μl Chk2 (1:500, 2.4 μg/mL final concentration).
Plates are covered and incubated at room temperature for 60 minutes.
IMAP binding reagent (Molecular Devices) is diluted 1:400 into binding buffer (Molecular Devices). 15 μl of this solution is then added to all wells and the plates are covered and incubated for 30 minutes.
Plates are read using a Tecan Ultra under the fluorescence polarization mode. Gain is set to the less enzyme and less Compound wells for each plate. Excitation 485 nm, emmission 535 nm, Z position 12519 and flashes 5 are used as settings. Raw data from the Tecan reader is imported into an access database for analysis.

T1 sequence (O96017 whole entry): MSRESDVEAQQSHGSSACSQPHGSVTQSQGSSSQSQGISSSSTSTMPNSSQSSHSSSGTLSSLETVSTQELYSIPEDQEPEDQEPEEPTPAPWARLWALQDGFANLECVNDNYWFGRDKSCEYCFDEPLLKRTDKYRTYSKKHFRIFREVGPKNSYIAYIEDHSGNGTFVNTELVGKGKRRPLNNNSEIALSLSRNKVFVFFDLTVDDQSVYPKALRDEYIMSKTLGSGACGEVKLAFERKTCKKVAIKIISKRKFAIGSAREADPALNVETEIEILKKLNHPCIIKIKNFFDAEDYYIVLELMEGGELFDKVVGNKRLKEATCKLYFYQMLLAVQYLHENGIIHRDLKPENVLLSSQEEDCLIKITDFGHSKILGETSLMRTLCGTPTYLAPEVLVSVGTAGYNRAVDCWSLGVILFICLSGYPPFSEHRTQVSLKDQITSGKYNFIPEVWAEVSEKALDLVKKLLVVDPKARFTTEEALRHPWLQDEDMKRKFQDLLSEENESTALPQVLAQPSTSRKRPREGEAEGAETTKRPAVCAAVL

Row | EC50 [µM] | Structure (SMILES)
1 | > 10 | CSC(=N)N/N=C(\C)c1ccc(NC(=O)Nc2ccc(C(C)=O)cc2)cc1 [Compound 64]
2 | 0.1 to 0.3 | C/C(=N\N/C(=N\N)NN)c1ccc(NC(=O)Nc2ccc(/C(C)=N/N/C(=N\N)NN)cc2)cc1 [Compound 65]
3 | 0.1 to 0.3 | CC(=O)c1ccc(NC(=O)Nc2ccc(/C(C)=N/NC3=NCCN3)cc2)cc1 [Compound 66]
4 | 1 to 10 | C/C(=N\NC(=N)N)c1ccc(NC(=O)c2cc3cc(Cl)ccc3[nH]2)cc1 [Compound 67]
5 | 1 to 10 | C/C(=N\NC(=N)N)c1ccc(NC(=O)c2cc3cccc(/C(C)=N/NC(=N)N)c3[nH]2)cc1 [Compound 68]
6 | < 0.1 | COc1cc([N+](=O)[O-])c2[nH]c(C(=O)Nc3ccc(/C(C)=N/NC(=N)N)cc3)cc2c1 [Compound 69]
7 | < 0.1 | CC(=O)c1ccc2[nH]c(C(=O)Nc3ccc(/C(C)=N/NC(=N)N)cc3)cc2c1 [Compound 71]
8 | 0.3 to 1 | CC(=O)c1ccc(NC(=O)c2cc3cc(/C(C)=N/NC(=N)N)ccc3[nH]2)cc1 [Compound 72]
9 | 0.3 to 1 | COc1cc2cc(C(=O)Nc3ccc(/C(C)=N/NC(=N)N)cc3)[nH]c2cc1OC [Compound 73]
10 | 0.3 to 1 | COc1ccc2cc(C(=O)Nc3ccc(/C(C)=N/NC(=N)N)cc3)[nH]c2c1 [Compound 74]
11 | 1 to 10 | COc1cccc2cc(C(=O)Nc3ccc(C(C)=NNC(=N)N)cc3)[nH]c12 [Compound 75]
12 | 0.3 to 1 | CC(=O)Nc1cccc2cc(C(=O)Nc3ccc(/C(C)=N/NC(=N)N)cc3)[nH]c12 [Compound 76]
13 | 1 to 10 | C/C(=N\NC(=N)N)c1ccc(NC(=O)c2cc3cccc(N)c3[nH]2)cc1 [Compound 77]
14 | 0.1 to 0.3 | COc1ccc2oc(C(=O)Nc3ccc(/C(C)=N/NC(=N)N)cc3)cc2c1 [Compound 78]
15 | 1 to 10 | C/C(=N\NC(=N)N)c1ccc(NC(=O)c2ccc3c(c2)CCC/C3=N\NC(=N)N)cc1 [Compound 79]
16 | 0.3 to 1 | C/C(=N\NC(=N)N)c1ccc2[nH]c(C(=O)Nc3ccc4[nH]ccc4c3)cc2c1 [Compound 80]
17 | 0.3 to 1 | C/C(=N\NC(=N)N)c1ccc2[nH]c(C(=O)Nc3ccc4cc[nH]c4c3)cc2c1 [Compound 81]
18 | 1 to 10 | COc1ccc2nc(C(=O)Nc3ccc(/C(C)=N/NC(=N)N)cc3)sc2c1 [Compound 82]
19 | 1 to 10 | C/C(=N\NC(=N)N)c1ccc(NC(=O)c2cc3ccc(N)cc3[nH]2)cc1 [Compound 83]
20 | 1 to 10 | C/C(=N\NC(=N)N)c1ccc(NC(=O)c2cc3cccc([N+](=O)[O-])c3[nH]2)cc1C [Compound 84]

Row | EC50 [µM] | Structure (SMILES)
21 | > 10 | C/C(=N\NC(=N)N)c1ccc(NC(=O)c2cc3cccc(C(F)(F)F)c3[nH]2)cc1 [Compound 85]
22 | < 0.1 | N=C(N)N/N=C1\CCCc2cc(NC(=O)c3cc4cccc([N+](=O)[O-])c4[nH]3)ccc21 [Compound 86]
23 | 1 to 10 | C/C(=N\NC(=N)N)c1ccc(NC(=O)c2cc3cc(F)ccc3[nH]2)cc1 [Compound 87]
24 | 0.3 to 1 | CC(=O)Nc1ccc2cc(C(=O)Nc3ccc(/C(C)=N/NC(=N)N)cc3)[nH]c2c1 [Compound 88]
25 | 0.3 to 1 | C/C(=N\NC(=N)N)c1ccc(NC(=O)c2cc3ccc(S(C)(=O)=O)cc3[nH]2)cc1 [Compound 89]
26 | 1 to 10 | CCCOc1ccc2cc(C(=O)Nc3ccc(/C(C)=N/NC(=N)N)cc3)[nH]c2c1 [Compound 90]
27 | 0.3 to 1 | CSc1ccc2cc(C(=O)Nc3ccc(/C(C)=N/NC(=N)N)cc3)[nH]c2c1 [Compound 91]
28 | 0.3 to 1 | CCNc1ccc2cc(C(=O)Nc3ccc(/C(C)=N/NC(=N)N)cc3)[nH]c2c1 [Compound 92]
29 | 0.3 to 1 | C/C(=N\NC(=N)N)c1ccc(NC(=O)c2cc3ccc(C)cc3[nH]2)cc1 [Compound 93]
30 | 0.3 to 1 | C/C(=N\NC(=N)N)c1ccc(NC(=O)c2cc3ccc(Cl)cc3[nH]2)cc1 [Compound 94]
31 | 1 to 10 | C/C(=N\NC(=N)N)c1ccc(NC(=O)c2cc3cccc(NS(N)(=O)=O)c3[nH]2)cc1 [Compound 95]
32 | 1 to 10 | N=C(N)N/N=C1\CCc2cc(NC(=O)c3cc4cccc([N+](=O)[O-])c4[nH]3)ccc21 [Compound 96]
33 | 1 to 10 | C/C(=N\NC(=N)N)c1ccc(NC(=O)c2cc3c(C)cccc3[nH]2)cc1 [Compound 97]
34 | 1 to 10 | COc1cc2cc(C(=O)Nc3ccc(/C(C)=N/NC(=N)N)cc3)[nH]c2cc1NC(C)=O [Compound 98]
35 | 0.3 to 1 | COc1cc2cc(C(=O)Nc3ccc(/C(C)=N/NC(=N)N)cc3)[nH]c2cc1N [Compound 99]
36 | > 10 | C/C(=N\NC(=N)N)c1ccc(NC(=O)c2nc3ccccc3[nH]2)cc1 [Compound 100]
37 | < 0.1 | C/C(=N\NC(=N)N)c1ccc2[nH]c(C(=O)Nc3ccc4ncccc4c3)cc2c1 [Compound 101]
38 | 1 to 10 | C/C(=N\NC(=N)N)c1ccc2[nH]c(C(=O)Nc3cc(C)ccn3)cc2c1 [Compound 102]
39 | 1 to 10 | C/C(=N\NC(=N)N)c1ccc2[nH]c(C(=O)Nc3ccc(C)cn3)cc2c1 [Compound 103]
40 | > 10 | C/C(=N\NC(=N)N)c1ccc2[nH]c(C(=O)Nc3ccccn3)cc2c1 [Compound 104]

Row | EC50 [µM] | Structure (SMILES)
41 | 0.3 to 1 | COc1ccc2[nH]c(C(=O)Nc3ccc4c(c3)CCC/C4=N\NC(=N)N)cc2c1 [Compound 105]
42 | 1 to 10 | C/C(=N\NC(=N)N)c1ccc(NC(=O)c2cn3ccccc3n2)cc1 [Compound 106]
43 | 1 to 10 | C/C(=N\NC(=N)N)c1ccc(NC(=O)c2cc3c(ccc4ccccc43)[nH]2)cc1 [Compound 107]
44 | 1 to 10 | C/C(=N\NC(=N)N)c1ccc2[nH]c(C(=O)Nc3cccc4[nH]ccc34)cc2c1 [Compound 108]
45 | 0.3 to 1 | C/C(=N\NC(=N)N)c1ccc2[nH]c(C(=O)Nc3ccc4[nH]c(C)cc4c3)cc2c1 [Compound 109]
46 | > 10 | COc1ccc2[nH]c(C(=O)Nc3ccc4c(c3)CC/C4=N\NC(=N)N)cc2c1 [Compound 110]
47 | 0.3 to 1 | C/C(=N\NC(=N)N)c1ccc2[nH]c(C(=O)Nc3cccc(N)c3)cc2c1 [Compound 111]
48 | 1 to 10 | C/C(=N\NC(=N)N)c1ccc2[nH]c(C(=O)Nc3ccc(N)cc3)cc2c1 [Compound 114]
49 | 0.1 to 0.3 | C/C(=N\NC(=N)N)c1ccc2[nH]c(C(=O)Nc3ccc(C(N)=O)cc3)cc2c1 [Compound 115]
50 | < 0.1 | CC(=NNC(N)=NO)c1ccc(NC(=O)Nc2ccc(C(C)=NNC(N)=NO)cc2)cc1 [Compound 116]
51 | < 0.1 | COc1ccc2[nH]c(C(=O)Nc3ccc(C(C)=NNC(N)=NO)cc3)cc2c1 [Compound 117]
52 | < 0.1 | CC(=NNC(N)=NO)c1ccc(NC(=O)c2cc3cccc([N+](=O)[O-])c3[nH]2)cc1 [Compound 118]
53 | < 0.1 | C/C(=N\NC(=N)N)c1ccc2[nH]c(C(=O)Nc3ccc4nc[nH]c4c3)cc2c1 [Compound 121]
54 | > 10 | C/C(=N\NC(=N)N)c1ccc2[nH]c(C(=O)Nc3ccc4cnccc4n3)cc2c1 [Compound 122]
55 | 0.1 to 0.3 | C/C(=N\NC(=N)N)c1ccc2[nH]c(C(=O)Nc3ccc4nc(C)ccc4c3)cc2c1 [Compound 125]
56 | < 0.1 | C/C(=N\NC(=N)N)c1ccc2[nH]c(C(=O)Nc3ccc4cnccc4c3)cc2c1 [Compound 126]
57 | 0.1 to 0.3 | C/C(=N/NC(=N)N)c1ccc2[nH]c(C(=O)Nc3ccc(-n4ccnc4)cc3)cc2c1 [Compound 127]
58 | 0.1 to 0.3 | C/C(=N/N/C(N)=N\O)c1ccc2[nH]c(C(=O)Nc3ccc(N4CCCCC4)cc3)cc2c1 [Compound 128]
59 | 0.3 to 1 | C/C(=N\N/C(N)=N/O)c1ccc(NC(=O)c2cc3cc(C(N)=O)ccc3[nH]2)cc1 [Compound 129]
60 | < 0.1 | C/C(=N\NC(=N)N)c1ccc(NC(=O)c2cc3cc(C(CC(C)C)=NNC(=N)N)ccc3[nH]2)cc1 [Compound 130]

Source: US8765802B2, “Kinase inhibitors, compositions thereof, and methods of use therewith” (Provid Pharmaceuticals, Inc., priority 2007, dated 2014)
